Data taken from US5346812A, “Teratogen assay” (priority 1992, dated 1994).
Entries after “also recorded” stand apart in the source; their conditions may differ. Like-named read-outs stand apart in the source and are kept apart here.

Tests used:
[1] = test system: 23 kDa heat shock protein gene promoter (hsp23-β-galactosidase hybrid gene); test: Drosophila heat shock hybrid gene expression assay (colorimetric beta-galactosidase assay) in primary embryonic cells from transformed flies; conditions: for FOLD INDUCTION OF B-GAL ACTIVITY: Experiment I, strain 700.2 embryonic cells, relative to nontreated cells
Source text: A representative hybrid gene in accordance with the above description includes a 23 kDa heat shock protein gene fragment beginning at the Pst I site 1.5 kb upstream from and extending through the transcription start site and the entire RNA leader region to a Pvu II site at codon 45 of the 23 kDa protein coding sequence, inserted upstream from a truncated (at codon 7 or 8) E. coli β-galactosidase gene. It addition, a 2.4-kb-long segment containing 3' nontranslated and nontranscribed sequences from a D. melanogaster 70 kDa heat shock protein gene is placed downstream from the β-galactosidase gene.
For the experiments with teratogens described below, only the 700 lines (see Table 2) were used. These lines carry a hybrid gene controlled by a 554 nucleotide-long segment of the 23 kDa heat shock protein gene promoter.
Preparation of embryos, cultures of primary cells, and incubation with teratogens
1. A creamy paste of yeast is placed on a piece of wet filter paper and such coated paper: deposited on 150 mm food plates. Embryos are then collected on these plates for 3 hours (inside a large fly cage). (For additional details, see the appended Materials and Methods section.)
2. The plates with the embryos are incubated further for 3.5 hours (embryos will reach the gastrulation stage).
3. The filter paper containing yeast is discarded. The plates are flooded with water, the embryos are brushed down, passed through a 1 mm (pore size) mesh and then collected on a 90 μm mesh.
4. Embryos are washed extensively with water. Subsequently they are picked up with a spatula and are placed into a solution of 10 ml chlorox/10 ml ethanol (95%). After a brief incubation, the embryos are transferred to a sintered glass funnel attached to a vacuum line and are washed with several volumes of sterile distilled water, No more than 2 minutes should elapse between the first exposure of the embryos to chlorox-ethanol solution and the beginning of the wash steps.
5. The embryos are then washed in 6 ml of culture medium. It is important to note that the embryos are not allowed to dry out during the wash procedure.
6. The wet embryos are transferred with a blunt spatula into a homogenizer containing 7 ml of culture medium. (Alternatively, they can be washed down into the homogenizer with medium.)
7. Three gentle passes are made with the loose fitting pestle.
8. Cell aggregates are broken up by repeated pipetting with a 1 ml pipette, and the cell suspension is passed through a 53 μm mesh.
9. The filtrate is collected in a 15 ml sterile disposable centrifuge tube and spun at 1800 rpm for 4 minutes (at room temperature).
10. The supernatant is decanted, and the cells are washed once more with 4 ml of medium.
11. The cells are finally suspended in 4 ml medium by repeated pipetting with a 1 ml pipette and are counted on a hemocytometer.
12. The cells are plated in 35 mm dishes at a density of 3.2×10^6cells per 2 ml of medium.
13. Forty-five minutes later the medium is removed from each dish, and 2 ml of fresh medium containing the chemical to be tested for teratogenicity is added. The culture is then incubated at 22° C. for 20 hrs. […] The cells are subsequently processed for the β-galactosidase assay (see below).
1. Cells in 35 mm dishes are washed once with phosphate-buffered saline and are then transferred to 15 ml centrifuge tubes.
2. The cells are collected by centrifugation (clinical centrifuge, 2000 rpm, 5 min) and are taken up in 350 μl of Z buffer (defined below) containing 0.5% of Nonidet NP40. The cells are lysed by repeated pipetting. Lysates are transferred to 1.5 ml Eppendorf tubes.
3. After a 5 minute spin (in the Eppendorf centrifuge) the supernatants are transferred to another set of tubes.
4. To 200 μl of this extract, 275 μl of substrate solution ONPG (4 mg/ml) in Z-buffer is added. The assays are run with straight as well as with diluted extract samples.
5. The reactions are incubated at 37° C. for 30 min.

[2] = use by pregnant women; cited from earlier work
[3] = test system: 23 kDa heat shock protein gene promoter (hsp23-β-galactosidase hybrid gene) in S3 cells; test: Hybrid gene (23 kDa heat shock protein-β-galactosidase) activity in transfected S3 cells; type: cell-based, Drosophila melanogaster; conditions: for E. coli-specific B-galactosidase, + ecdysterone: 3 μM, ELISA
Source text: The Drosophila melanogaster 23 kDa heat shock protein gene has been cloned and characterized by Voellmy et al. (Cell 23:261-270, 1981). Segments containing extensive 5' nontranscribed sequences from the 23 kDa heat shock protein gene, the RNA leader region, and part of the protein-coding region were linked in frame to an E. coli β-galactosidase gene. The resulting constructs encode a hybrid protein with β-galactosidase activity that is made under the control of the linked heat shock gene sequences (Lawson, R., et al., Dev. Biol. […], 1985). These constructs were introduced into Drosophila melanogaster S3 cells (an established cell line) by transfection (Lawson, R., et al., Mol. Gen. Genet. 198:116-124, 1984).
The construction of 23 kDa heat shock protein-β-galactosidase hybrid genes had been described (Lawson, R., et al., Dev. Biol. 110:321-330, 1985). The structure of a representative construct, p523/35, is shown in FIG. 4 (modified from Mestril, R., et al., EMBO J. 5(7):1667-1673, 1986). […] Hybrid gene activity was assessed in cell extracts both by a colorimetric enzymatic assay and by ELISA using antibodies specific for E. coli β-galactosidase (Lawson, R., et al., Dev. Biol. 110:321-330, 1985).
Derivatives of this basic construct that contained 23 kDa heat shock gene promoter sequences of different lengths were prepared, and their activity was tested using heat shock in transfected S3 cells (Mestril, R., et al., EMBO J. 4:2971-2976, Mestril, R., et al., EMBO J. 5:1667-1673, 1986).
A list of the cp20.1 derivatives of hybrid genes with 23 kDA heat shock protein gene promoter segments of different lengths is shown in Table 1. The functionality of the genes was tested in cultured Drosophila melanogaster S3 cells. Transfected cells were either heat-treated (not shown), exposed for one day at 3 μM ecdysterone, or not treated. Levels of β-galactosidase in extracts were measured by the ELISA procedure described in Mestril et al., EMBO J. 5:1667-1673, 1986.
Levels of Bgalactosidase were measured in cell extracts using the ELISA
protocol described in Mestril et al., 1986 (Mestril,R., Schiller,P.,
Amin,J., Klapper,H., Ananthan,J. and Voellmy,R. (1986) EMBO J.

[4] = shown in animal experiments; cited from earlier work
small heat shock genes = conditions: ecdysterone added to the medium; Ireland et al. 1982; cited from earlier work
[5] = test system: 23 kDa heat shock protein gene promoter (hsp23-β-galactosidase hybrid gene) in S3 cells; conditions: following exposure to ecdysterone; Lawson et al. 1985; Mestril et al.; cited from earlier work
[6] = Drosophila melanogaster, 20 h, read-out: FOLD INDUCTION OF B-GAL ACTIVITY
[7] = Drosophila melanogaster, 20 h, read-out: Fold Induction of B-Gal Activity

CC/C(=C(/CC)c1ccc(O)cc1)c1ccc(O)cc1 [DIETHYL STILBOSTEROL] showed a fold induction at 10 µM [1, 6] of 7.
With Nc1ncn([C@H]2C[C@H](O)[C@@H](CO)O2)c(=O)n1 [5-DEOXY-2' AZACYTIDINE] the “FOLD INDUCTION OF B-GAL ACTIVITY” value ([1]; 0.01 mM, 20 hrs) was 4 FOLD.
With [Cl][Hg][Cl] [Hg Cl2] the “FOLD INDUCTION OF B-GAL ACTIVITY” value ([1]; 0.005 mM, 20 hrs) was 3 FOLD.
C[S+](C)[O-] [DIMETHYL SULFOXIDE] showed a fold induction at 1000 µM [1, 6] of 1.
Molecule Cn1c(=O)c2c(ncn2C)n(C)c1=O [Caffeine] has a fold induction at 1000 µM [1, 7] of 1.02.
Work on CN1C(=O)CN=C(c2ccccc2)c2cc(Cl)ccc21 [Valium] yielded a fold induction at 1000 µM [1, 7] of 6.5.
In the case of CC1=C(/C=C/C(C)=C/C=C/C(C)=C/C(=O)O)C(C)(C)CCC1 [RETINOIC ACID (ALL TRANS)], the fold induction at 50 µM [1, 6] is reported as 5.
In the case of [Pb] [Lead], the “Fold Induction of B-Gal Activity” value ([1]; Experiment II, 2.5 mM, 20 hrs, relative to nontreated cells (see Table 3)) is reported as 15.78 Fold and the “synthesis of β-galactosidase in primary embryonic cells (in words)” value ([1]; primary embryonic cells from transformed flies) is reported as “directs the synthesis of β-galactosidase”.
For O=C1CCC(N2C(=O)c3ccccc3C2=O)C(=O)N1 (stereo not shown) [Thalidomide], the “synthesis of β-galactosidase in primary embryonic cells (in words)” value [1] is listed as “directs the synthesis of β-galactosidase”, the fold induction at 1000 µM [1, 7] is listed as 2.73 and the “babies suffering from phocomelia” value [2] is listed as ~10,000 babies.
In the case of O=c1ccc2ccccc2o1 [COUMARIN], the fold induction at 1000 µM [1, 6] is reported as 5 and the “hybrid gene activity in S3 cells (in words)” value [3] is reported as “did not induce hybrid gene activity”.
In the case of [Cl][Cd][Cl] [Cd Cl2], the “FOLD INDUCTION OF B-GAL ACTIVITY” value ([1]; 0.25 mM, 20 hrs) is reported as 7 FOLD.
With O=[As](O)(O)O [ARSENATE] the “FOLD INDUCTION OF B-GAL ACTIVITY” value ([1]; 0.2 mM, 20 hrs) was 8 FOLD.
Work on CCO [ETHYL ALCOHOL] yielded a fold induction at 160000 µM [1, 6] of 1.2.
O=C1NC(=O)C(c2ccccc2)(c2ccccc2)N1 [DIPHENYLHYDANTOIN, DIPHENYL-HYDANTOIN] gave a fold induction at 100 µM [1, 6] of 2.
In the case of CC(=O)[C@H]1CC[C@H]2[C@@H]3CCC4=CC(=O)CC[C@]4(C)[C@H]3CC[C@]12C [PROGESTERONE], the fold induction at 10 µM [1, 6] is reported as 1.
For CC(=O)Oc1ccccc1C(=O)O [ACETYL SALICYCLIC ACID], the “FOLD INDUCTION OF B-GAL ACTIVITY” value ([1]; 1.0 mM, 20 hrs) is given as 1.5 FOLD and the “CLASS (teratogen T / nonteratogen NT)” value [4] is given as “weak T”.
In the case of CC(C)(O)CC[C@@H](O)[C@](C)(O)[C@H]1CC[C@@]2(O)C3=CC(=O)[C@@H]4C[C@@H](O)[C@@H](O)C[C@]4(C)[C@H]3CC[C@]12C [ecdysterone], the “activation of the small heat shock genes (in words)” value (small heat shock genes) is given as “activation of the genes”, the “synthesis of β-galactosidase in transfected S3 cells (in words)” value [5] is given as “produced E. coli-specific β-galactosidase; also recorded: directed the synthesis of β-galactosidase” and the fold induction at 10 µM [1, 6] is given as 2. For the same molecule, the “E. coli-specific B-galactosidase, + ecdysterone” value (shortened to “E. coli-specific B-galactosidase”) ([3]; 63 bp 5' nontranscribed segment, one day, 0.0 without ecdysterone) was 0.1, the “E. coli-specific B-galactosidase” value ([3]; 147 bp 5' nontranscribed segment, one day) was 0.1 and the “E. coli-specific B-galactosidase” value ([3]; 197 bp 5' nontranscribed segment, one day) was 0.1. The “E. coli-specific B-galactosidase” value ([3]; 275 bp 5' nontranscribed segment, one day) was 0.3, the “E. coli-specific B-galactosidase” value ([3]; 295 bp 5' nontranscribed segment, one day) was 0.6 and the “E. coli-specific B-galactosidase” value ([3]; 333 bp 5' nontranscribed segment, one day, 0.0 without ecdysterone) was 1.0. The “E. coli-specific B-galactosidase” value ([3]; 363 bp 5' nontranscribed segment, one day) was 1.1, the “E. coli-specific B-galactosidase” value ([3]; 379 bp 5' nontranscribed segment, one day, 0.1 without ecdysterone) was 2.0 and the “E. coli-specific B-galactosidase” value ([3]; 554 bp 5' nontranscribed segment, one day) was 1.0. The “hybrid gene activity of constructs (in words)” value ([3]; several constructs, longest promoter segments, 3 μM ecdysterone, one day, inactive in untreated cells) was “active”.
